In ChEMBL document CHEMBL4024706 (Eur J Med Chem, 2017):

Tests used:
[1] = biological target: Mitogen-activated protein kinase 11 (Homo sapiens) (UniProt Q15759); test: Inhibition of wild-type human full length p38-beta (M1 to Q364 residues) expressed in bacterial expression system assessed as residual activity at 1 uM by Kinomescan method relative to control
[2] = biological target: Mitogen-activated protein kinase 6 (Homo sapiens) (UniProt Q16659); test: Inhibition of wild-type human partial length ERK3 (M1 to P413 residues) expressed in bacterial expression system assessed as residual activity at 1 uM by Kinomescan method relative to control
[3] = biological target: Leucine-rich repeat serine/threonine-protein kinase 2 (Homo sapiens) (UniProt Q5S007); test: Inhibition of wild-type human partial length LRRK2 (H970 to E2527 residues) expressed in mammalian expression system assessed as residual activity at 1 uM by Kinomescan method relative to control
[4] = test system: Mast/stem cell growth factor receptor Kit (Homo sapiens), P10721 [L576P]; test: Inhibition of human partial length KIT L576P mutant (Y545 to D952 residues) expressed in bacterial expression system assessed as residual activity at 1 uM by Kinomescan method relative to control
[5] = Tmax in Sprague-Dawley rat at 10 mg/kg, po by LC-MS/MS method; format: ADME, organism-based; details: in vivo
[6] = biological target: Mitogen-activated protein kinase kinase kinase 14 (Homo sapiens) (UniProt Q99558); test: Inhibition of wild-type human partial length NIK (L318 to P947 residues) expressed in mammalian expression system assessed as residual activity at 1 uM by Kinomescan method relative to control
[7] = biological target: Ribosomal protein S6 kinase alpha-5 (Homo sapiens) (UniProt O75582); test: Inhibition of wild-type human partial length N-terminal RPS6KA5 kinase domain 1 expressed in bacterial expression system assessed as residual activity at 1 uM by Kinomescan method relative to control
[8] = biological target: Serine/threonine-protein kinase 24 (Homo sapiens) (UniProt Q9Y6E0); test: Inhibition of wild-type human partial length MST3 (A30 to S311 residues) expressed in bacterial expression system assessed as residual activity at 1 uM by Kinomescan method relative to control
[9] = biological target: Phosphatidylinositol 4-phosphate 5-kinase type-1 gamma (Homo sapiens) (UniProt O60331); test: Inhibition of wild-type human partial length PIP5K1C (M1 to T668 residues) expressed in mammalian expression system assessed as residual activity at 1 uM by Kinomescan method relative to control
[10] = biological target: Cyclin-dependent kinase 7 (Homo sapiens) (UniProt P50613); test: Inhibition of wild-type human full length CDK7 (M1 to L344 residues) expressed in mammalian expression system assessed as residual activity at 1 uM by Kinomescan method relative to control
[11] = biological target: Mitogen-activated protein kinase kinase kinase kinase 3 (Homo sapiens) (UniProt Q8IVH8); test: Inhibition of wild-type human partial length MAP4K3 (M1 to D301 residues) expressed in bacterial expression system assessed as residual activity at 1 uM by Kinomescan method relative to control
[12] = biological target: SRSF protein kinase 3 (Homo sapiens) (UniProt Q9UPE1); test: Inhibition of wild-type human partial length SRPK3 (P41 to P567 residues) expressed in bacterial expression system assessed as residual activity at 1 uM by Kinomescan method relative to control
[13] = biological target: Aurora kinase B (Homo sapiens) (UniProt Q96GD4); test: Inhibition of wild-type human partial length AURKB (D25 to A303 residues) expressed in mammalian expression system assessed as residual activity at 1 uM by Kinomescan method relative to control
[14] = biological target: Discoidin domain-containing receptor 2 (Homo sapiens) (UniProt Q16832); test: Inhibition of wild-type human partial length DDR2 (V555 to E855 residues) expressed in mammalian expression system assessed as residual activity at 1 uM by Kinomescan method relative to control
[15] = biological target: Serine/threonine-protein kinase LATS2 (Homo sapiens) (UniProt Q9NRM7); test: Inhibition of wild-type human partial length LATS2 (Q641 to V1088 residues) expressed in mammalian expression system assessed as residual activity at 1 uM by Kinomescan method relative to control
[16] = biological target: Tyrosine-protein kinase ITK/TSK (Homo sapiens) (UniProt Q08881); test: Inhibition of wild-type human partial length ITK (R335 to L620 residues) expressed in bacterial expression system assessed as residual activity at 1 uM by Kinomescan method relative to control
[17] = biological target: Ephrin type-B receptor 4 (Homo sapiens) (UniProt P54760); test: Inhibition of wild-type human partial length EPHB4 (H585 to G892 residues) expressed in bacterial expression system assessed as residual activity at 1 uM by Kinomescan method relative to control
[18] = biological target: Peripheral plasma membrane protein CASK (Homo sapiens) (UniProt O14936); test: Inhibition of wild-type human partial length CASK (M1 to H315 residues) expressed in mammalian expression system assessed as residual activity at 1 uM by Kinomescan method relative to control
[19] = biological target: Vascular endothelial growth factor receptor 2 (Homo sapiens) (UniProt P35968); test: Inhibition of wild-type human partial length VEGFR2 (R787 to P1253 residues) expressed in mammalian expression system assessed as residual activity at 1 uM by Kinomescan method relative to control
[20] = biological target: Serine/threonine-protein kinase Chk1 (Homo sapiens) (UniProt O14757); test: Inhibition of wild-type human partial length CHEK1 (M1 to G289 residues) expressed in bacterial expression system assessed as residual activity at 1 uM by Kinomescan method relative to control
[21] = test system: Leucine-rich repeat serine/threonine-protein kinase 2 (Homo sapiens), Q5S007 [G2019S]; test: Inhibition of human partial length LRRK2 G2019S mutant (H970 to E2527 residues) expressed in mammalian expression system assessed as residual activity at 1 uM by Kinomescan method relative to control
[22] = biological target: Tyrosine-protein kinase BTK (Homo sapiens, UniProt Q06187); test: Inhibition of BTK auto-phosphorylation at Y223 in human Pfeiffer cells measured after 4 hrs by chemiluminescent assay
[23] = biological target: Serine/threonine-protein kinase tousled-like 2 (Homo sapiens) (UniProt Q86UE8); test: Inhibition of wild-type human partial length TLK2 (E424 to N749 residues) expressed in bacterial expression system assessed as residual activity at 1 uM by Kinomescan method relative to control
[24] = biological target: Cyclin-dependent kinase 18 (Homo sapiens) (UniProt Q07002); test: Inhibition of wild-type human full length PCTK3 (M3 to F474 residues) expressed in bacterial expression system assessed as residual activity at 1 uM by Kinomescan method relative to control
U-937 = test: Growth inhibition of human U937 cells; format: functional; details: Homo sapiens, U-937
[25] = biological target: 1-phosphatidylinositol 3-phosphate 5-kinase (Homo sapiens) (UniProt Q9Y2I7); test: Inhibition of wild-type human partial length PIKFYVE (F1512 to C2098 residues) expressed in mammalian expression system assessed as residual activity at 1 uM by Kinomescan method relative to control
1-phosphatidylinositol 3-phosphate 5-kinase (Homo sapiens), sequence (Q9Y2I7 whole entry, the tested form may be a part): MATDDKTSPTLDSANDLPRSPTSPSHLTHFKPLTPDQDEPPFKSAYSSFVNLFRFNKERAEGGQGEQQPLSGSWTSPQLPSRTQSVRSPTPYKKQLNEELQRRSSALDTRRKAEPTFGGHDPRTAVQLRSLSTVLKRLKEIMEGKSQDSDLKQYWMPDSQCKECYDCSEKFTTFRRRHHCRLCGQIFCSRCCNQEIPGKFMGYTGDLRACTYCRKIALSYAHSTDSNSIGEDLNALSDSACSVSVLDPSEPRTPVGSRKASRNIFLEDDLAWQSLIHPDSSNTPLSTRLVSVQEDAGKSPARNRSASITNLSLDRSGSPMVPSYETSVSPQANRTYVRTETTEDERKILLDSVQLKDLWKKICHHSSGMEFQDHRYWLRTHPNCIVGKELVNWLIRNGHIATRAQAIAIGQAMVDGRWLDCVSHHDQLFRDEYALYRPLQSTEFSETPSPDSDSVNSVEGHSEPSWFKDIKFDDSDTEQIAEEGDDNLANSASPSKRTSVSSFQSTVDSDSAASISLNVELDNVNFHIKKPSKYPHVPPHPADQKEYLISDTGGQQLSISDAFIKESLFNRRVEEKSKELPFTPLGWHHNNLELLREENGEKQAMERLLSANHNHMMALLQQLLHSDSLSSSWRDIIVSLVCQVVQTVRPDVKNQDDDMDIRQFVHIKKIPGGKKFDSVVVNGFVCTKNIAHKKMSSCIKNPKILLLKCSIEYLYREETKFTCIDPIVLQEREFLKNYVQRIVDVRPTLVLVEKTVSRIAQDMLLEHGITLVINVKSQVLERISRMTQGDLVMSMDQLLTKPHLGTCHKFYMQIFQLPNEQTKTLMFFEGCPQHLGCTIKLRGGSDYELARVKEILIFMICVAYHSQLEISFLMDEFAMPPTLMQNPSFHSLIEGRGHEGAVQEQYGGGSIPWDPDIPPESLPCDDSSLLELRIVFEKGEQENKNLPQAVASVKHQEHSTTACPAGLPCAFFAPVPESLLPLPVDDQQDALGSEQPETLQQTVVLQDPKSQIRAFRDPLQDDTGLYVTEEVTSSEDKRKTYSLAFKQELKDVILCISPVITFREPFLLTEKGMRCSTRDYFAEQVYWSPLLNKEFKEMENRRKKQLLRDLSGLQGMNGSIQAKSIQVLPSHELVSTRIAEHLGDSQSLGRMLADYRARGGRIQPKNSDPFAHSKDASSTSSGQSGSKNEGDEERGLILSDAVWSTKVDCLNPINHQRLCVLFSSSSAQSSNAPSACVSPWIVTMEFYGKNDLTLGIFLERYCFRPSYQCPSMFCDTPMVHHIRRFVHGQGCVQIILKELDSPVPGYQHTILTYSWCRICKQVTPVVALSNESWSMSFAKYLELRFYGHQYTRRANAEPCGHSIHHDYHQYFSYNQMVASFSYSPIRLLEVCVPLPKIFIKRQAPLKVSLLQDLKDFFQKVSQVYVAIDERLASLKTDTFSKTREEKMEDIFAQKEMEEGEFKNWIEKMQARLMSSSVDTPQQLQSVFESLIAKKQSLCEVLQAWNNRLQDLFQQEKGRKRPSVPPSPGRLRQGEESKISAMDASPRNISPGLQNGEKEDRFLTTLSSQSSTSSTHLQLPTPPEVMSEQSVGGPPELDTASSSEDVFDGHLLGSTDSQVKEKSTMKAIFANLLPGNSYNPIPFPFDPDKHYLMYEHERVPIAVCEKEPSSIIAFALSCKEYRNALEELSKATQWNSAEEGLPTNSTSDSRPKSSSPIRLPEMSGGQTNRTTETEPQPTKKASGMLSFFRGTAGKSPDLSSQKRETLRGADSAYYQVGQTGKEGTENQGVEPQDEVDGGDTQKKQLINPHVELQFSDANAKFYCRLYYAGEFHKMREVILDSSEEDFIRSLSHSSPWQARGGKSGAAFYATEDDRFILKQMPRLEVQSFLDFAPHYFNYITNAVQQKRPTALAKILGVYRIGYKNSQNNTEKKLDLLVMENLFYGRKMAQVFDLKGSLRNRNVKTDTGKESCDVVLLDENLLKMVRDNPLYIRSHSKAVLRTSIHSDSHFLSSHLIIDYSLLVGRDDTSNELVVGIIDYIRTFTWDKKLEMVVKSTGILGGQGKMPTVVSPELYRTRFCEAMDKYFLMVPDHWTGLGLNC

Aurora kinase B (Homo sapiens), sequence (Q96GD4 whole entry, the tested form may be a part): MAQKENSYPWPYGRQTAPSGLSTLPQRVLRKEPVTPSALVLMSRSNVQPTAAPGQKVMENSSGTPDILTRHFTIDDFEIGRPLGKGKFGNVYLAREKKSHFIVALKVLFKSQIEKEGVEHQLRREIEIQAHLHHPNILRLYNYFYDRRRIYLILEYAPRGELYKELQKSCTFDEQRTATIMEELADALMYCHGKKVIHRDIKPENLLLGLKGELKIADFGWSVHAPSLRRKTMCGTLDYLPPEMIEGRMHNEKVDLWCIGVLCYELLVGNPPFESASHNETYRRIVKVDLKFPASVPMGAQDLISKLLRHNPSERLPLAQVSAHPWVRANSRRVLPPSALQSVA
Cyclin-dependent kinase 18 (Homo sapiens), sequence (Q07002 whole entry, the tested form may be a part): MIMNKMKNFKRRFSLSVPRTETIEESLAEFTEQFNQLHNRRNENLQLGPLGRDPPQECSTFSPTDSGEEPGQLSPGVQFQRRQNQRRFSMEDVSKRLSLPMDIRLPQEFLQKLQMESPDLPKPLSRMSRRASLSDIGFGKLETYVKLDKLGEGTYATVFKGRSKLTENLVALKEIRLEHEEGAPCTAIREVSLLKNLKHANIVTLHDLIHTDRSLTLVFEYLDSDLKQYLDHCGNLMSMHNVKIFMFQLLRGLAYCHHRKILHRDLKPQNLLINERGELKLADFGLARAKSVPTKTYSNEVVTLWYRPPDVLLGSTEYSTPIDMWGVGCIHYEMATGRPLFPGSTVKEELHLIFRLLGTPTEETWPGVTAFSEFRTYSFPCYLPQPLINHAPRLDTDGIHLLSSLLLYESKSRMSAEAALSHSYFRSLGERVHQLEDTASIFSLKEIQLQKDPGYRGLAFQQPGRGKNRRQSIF
Serine/threonine-protein kinase tousled-like 2 (Homo sapiens), sequence (Q86UE8 whole entry, looked up, the tested form may be a part): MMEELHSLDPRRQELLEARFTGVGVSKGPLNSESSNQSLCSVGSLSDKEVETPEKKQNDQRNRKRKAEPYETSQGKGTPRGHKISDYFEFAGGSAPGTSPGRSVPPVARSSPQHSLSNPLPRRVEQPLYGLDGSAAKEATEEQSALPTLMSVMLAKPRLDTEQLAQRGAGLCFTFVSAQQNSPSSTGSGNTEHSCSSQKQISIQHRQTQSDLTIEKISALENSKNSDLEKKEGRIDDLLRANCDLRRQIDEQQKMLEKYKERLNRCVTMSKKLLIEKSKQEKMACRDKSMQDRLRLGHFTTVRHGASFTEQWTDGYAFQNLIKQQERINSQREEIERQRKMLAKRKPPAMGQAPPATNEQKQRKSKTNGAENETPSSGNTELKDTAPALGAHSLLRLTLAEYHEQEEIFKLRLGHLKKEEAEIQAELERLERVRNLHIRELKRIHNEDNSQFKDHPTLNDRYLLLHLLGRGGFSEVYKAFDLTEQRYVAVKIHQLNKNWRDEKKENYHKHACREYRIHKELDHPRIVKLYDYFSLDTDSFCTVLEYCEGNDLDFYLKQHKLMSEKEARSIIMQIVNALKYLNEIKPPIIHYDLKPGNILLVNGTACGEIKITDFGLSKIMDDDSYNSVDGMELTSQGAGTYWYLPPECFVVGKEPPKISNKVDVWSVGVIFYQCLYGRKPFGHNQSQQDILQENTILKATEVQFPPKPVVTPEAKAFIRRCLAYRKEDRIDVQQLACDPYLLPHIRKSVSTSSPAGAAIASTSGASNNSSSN
Serine/threonine-protein kinase 24 (Homo sapiens), sequence (Q9Y6E0 whole entry, looked up, the tested form may be a part): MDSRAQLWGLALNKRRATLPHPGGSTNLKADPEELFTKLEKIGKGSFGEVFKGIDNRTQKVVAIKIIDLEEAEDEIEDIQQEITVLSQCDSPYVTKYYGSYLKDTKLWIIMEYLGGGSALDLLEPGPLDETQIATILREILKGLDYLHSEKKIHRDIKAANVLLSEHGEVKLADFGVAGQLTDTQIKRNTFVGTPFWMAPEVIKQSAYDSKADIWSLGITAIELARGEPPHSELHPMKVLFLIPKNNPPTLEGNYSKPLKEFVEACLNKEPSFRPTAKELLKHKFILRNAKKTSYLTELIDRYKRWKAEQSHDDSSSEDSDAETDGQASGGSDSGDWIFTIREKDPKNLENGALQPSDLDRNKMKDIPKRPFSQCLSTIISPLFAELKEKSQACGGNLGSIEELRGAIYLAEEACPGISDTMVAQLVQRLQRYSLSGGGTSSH
SRSF protein kinase 3 (Homo sapiens), sequence (Q9UPE1 whole entry, the tested form may be a part): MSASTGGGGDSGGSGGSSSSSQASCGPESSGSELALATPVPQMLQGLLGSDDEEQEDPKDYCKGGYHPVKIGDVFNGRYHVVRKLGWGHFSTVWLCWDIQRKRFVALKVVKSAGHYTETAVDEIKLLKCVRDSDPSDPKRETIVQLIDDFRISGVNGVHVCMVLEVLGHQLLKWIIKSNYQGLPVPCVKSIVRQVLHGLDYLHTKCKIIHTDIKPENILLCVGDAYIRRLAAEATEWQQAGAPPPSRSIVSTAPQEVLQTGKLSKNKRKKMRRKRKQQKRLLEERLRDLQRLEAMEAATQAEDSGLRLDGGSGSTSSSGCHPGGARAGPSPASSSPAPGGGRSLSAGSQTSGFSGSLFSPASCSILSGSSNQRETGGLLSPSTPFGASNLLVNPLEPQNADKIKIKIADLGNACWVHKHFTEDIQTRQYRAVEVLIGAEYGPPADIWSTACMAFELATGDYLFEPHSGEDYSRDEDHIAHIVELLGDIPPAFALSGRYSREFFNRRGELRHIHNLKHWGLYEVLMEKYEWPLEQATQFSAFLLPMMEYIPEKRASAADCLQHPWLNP
Mitogen-activated protein kinase 11 (Homo sapiens), sequence (Q15759 whole entry, the tested form may be a part): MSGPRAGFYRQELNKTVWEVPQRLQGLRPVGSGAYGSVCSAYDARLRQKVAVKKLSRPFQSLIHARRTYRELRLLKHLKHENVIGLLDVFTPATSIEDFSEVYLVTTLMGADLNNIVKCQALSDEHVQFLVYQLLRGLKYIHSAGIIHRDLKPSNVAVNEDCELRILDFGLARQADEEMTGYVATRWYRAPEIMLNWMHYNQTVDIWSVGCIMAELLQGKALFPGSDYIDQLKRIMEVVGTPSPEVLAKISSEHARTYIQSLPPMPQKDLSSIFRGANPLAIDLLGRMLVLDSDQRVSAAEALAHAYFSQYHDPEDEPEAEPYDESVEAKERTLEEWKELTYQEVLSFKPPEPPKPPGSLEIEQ

## C=CC(=O)Nc1cc(Nc2cc(-c3cccc(NC(=O)c4ccc(C(C)(C)C)cc4)c3C)cn(C)c2=O)ccc1C(=O)N1CCOCC1
[1]
  Activity: 100%
[2]
  Activity: 100%
[3]
  Activity: 100%
[4]
  Activity: 97%
[5]
  Tmax: 30 min
[6]
  Activity: 86%
[7]
  Activity: 97%
[8]
  Activity: 98%
[9]
  Activity: 100%
[10]
  Activity: 89%
[11]
  Activity: 95%
[12]
  Activity: 81%
[13]
  Activity: 98%
[14]
  Activity: 93%
[15]
  Activity: 100%
[16]
  Activity: 100%
[17]
  Activity: 88%
[18]
  Activity: 95%
[19]
  Activity: 97%
[20]
  Activity: 100%
[21]
  Activity: 58%
[22]
  EC50: < 0.03 µM
[23]
  Activity: 100%
[24]
  Activity: 98%
U-937
  GI50: 4.8 µM
[25]
  Activity: 96%
